Source: patent publication US8518997B2, “4-(phenoxyalkyl)thio)-phenoxyacetic acids and analogs” (Janssen Pharmaceutica N.V., priority 2003, dated 2013)

Columns and labels:
[1] = tested on: differentiated THP-1 monocytes; details: cited from earlier work
PPAR delta = biological target: T1, PPAR delta (Homo sapiens, UniProt Q03181); assay: Transfection assay for PPAR receptors (PPAR-Gal4 / Gal4-Luciferase reporter in HEK293 cells); assay type: cell-based; details: HEK293 cells co-transfected with PPAR-Gal4 (δ) receptor and Gal4-Luciferase reporter, 24 hours; multiple EC50's = multiple measurements; Table 2
T1 sequence (Q03181 171-441 limits assumed): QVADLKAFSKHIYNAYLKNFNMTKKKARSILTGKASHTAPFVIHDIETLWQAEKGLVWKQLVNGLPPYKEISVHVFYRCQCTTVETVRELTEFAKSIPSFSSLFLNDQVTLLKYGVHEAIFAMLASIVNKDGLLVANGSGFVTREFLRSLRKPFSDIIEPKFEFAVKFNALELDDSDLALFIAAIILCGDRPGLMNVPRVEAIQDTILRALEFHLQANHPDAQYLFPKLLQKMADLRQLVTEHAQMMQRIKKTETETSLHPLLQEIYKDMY
Experimental: Transfection Assay Method for PPAR Receptors
HEK293 cells were grown in DMEM/F-12 Media supplemented with 10% FBS and glutamine (GIBCOBRL). The cells were co-transfected with DNA for PPAR-Gal4 (PPARα, γ or δ) receptor and Gal4-Luciferase Reporter using the DMRIE-C Reagent. On the following day, the medium was replaced with 5% Charcoal treated FBS growth medium. After six hours, cells were trypsinized and seeded at a density of 50,000 cell/well into 96 well plates and incubated overnight at 37° C. in a 5% CO2 incubator. Cells were then treated with test compounds or vehicle and incubated for 24 hours at 37° C. in a 5% CO2 incubator. Luciferase activity was assayed using the Steady-Glo Luciferase Assay Kit from Promega. […] Steady-Glo Luciferase Assay Kit was purchased from Promega Part# E254B.

Cc1cc(SCc2sc(-c3ccc(C(F)(F)F)cc3)nc2C)ccc1OCC(=O)O [GW501516]
ABCA1 mRNA expression [1]: induced | cholesterol efflux [1]: enhanced

COc1ccc(OC(COc2ccc(C(F)(F)F)cc2)CSc2ccc(OCC(=O)O)c(C)c2)cc1 (stereo not drawn) [Compound 29, {4-[2-(4-Methoxy-phenoxy)-3-(4-trifluoromethyl-phenoxy)-propylsulfanyl]-2-methyl-phenoxy}-acetic acid]
EC50 (PPAR delta): 62.1 nM
